system: HCV replicon I389luc-ubi-neo/NS3-3′/ET in ET (Huh-lucubineo-ET) cells; screening for HCV RNA dependent RNA polymerase; assay: Replicon Assay (luciferase, ET cell line Huh-lucubineo-ET); assay type: cell-based; conditions: Hepatitis C virus; inhibition of replication relative to no compound control; test concentration of 10 μM according to the fitted equation; luciferase 48-72 hours
Method: A cell line, ET (Huh-lucubineo-ET) was used for screening of compounds of the present invention for HCV RNA dependent RNA polymerase. The ET cell line was stably transfected with RNA transcripts harboring a I389luc-ubi-neo/NS3-3′/ET; replicon with firefly luciferase-ubiquitin-neomycin phosphotransferase fusion protein and EMCV-IRES driven NS3-5B polyprotein containing the cell culture adaptive mutations (E1202G; T12801; K1846T) (Krieger at al, 2001 and unpublished). The ET cells were grown in DMEM, supplemented with 10% fetal calf serum, 2 mM Glutamine, Penicillin (100 IU/mL)/Streptomycin (100 μg/mL), 1× nonessential amino acids, and 250 μg/mL G418 (“Geneticin”). They were all available through Life Technologies (Bethesda, Md.). The cells were plated at 0.5-1.0×10^4 cells/well in the 96 well plates and incubated for 24 hrs before adding nucleoside analogs. […] Luciferase activity were measured 48-72 hours later by adding a lysis buffer and the substrate (Catalog number Glo-lysis buffer E2661 and Bright-Glo luciferase system E2620 Promega, Madison, Wis.). Cells should not be too confluent during the assay. Percent inhibition of replication was plotted relative to no compound control. Under the same condition, cytotoxicity of the compounds was determined using cell proliferation reagent, WST-1(Roche, Germany). The compounds showing antiviral activities, but no significant cytotoxicities were chosen to determine IC50 and TC50. For these determinations, 10 concentrations of each compound were used. Concentrations for test compounds typically span a range of 500 fold. IC50 and TC50 values were calculated by fitting % inhibition at each concentration (I) to the following equation: % inhibition=100%/[1+10^(log IC50−log (I))*b] where b is Hill's coefficient.

Row | Compound | inhibition at 10 µM [%]
1 | Nc1ccc(-c2csc(NC(=O)C3CCCN3C(=O)OCc3ccccc3)n2)cc1 (stereo not drawn) [Compound 5050, 2-[4-(4-Amino-phenyl)-thiazol-2-ylcarbamoyl]-pyrrolidine-1-carboxylic acid benzyl ester] | 99.8
2 | O=C(NC1CCNCC1)c1ccc(-c2csc(NC(=O)C3CCCN3C(=O)OCc3ccccc3)n2)cc1 (stereo not drawn) [Compound 5356, 2-{4-[4-(Piperidin-4-ylcarbamoyl)-phenyl]-thiazol-2-ylcarbamoyl}-pyrrolidine-1-carboxylic acid benzyl ester] | 100
3 | O=C(Nc1cccc(-c2cnc(NC(=O)[C@@H]3CCCN3C(=O)OCc3ccccc3)s2)c1)C1CCCC1 [Compound 5116, 2-{5-[3-(Cyclopentanecarbonyl-amino)-phenyl]-thiazol-2-ylcarbamoyl}-pyrrolidine-1-carboxylic acid benzyl ester] | 100
4 | O=C(Nc1nc(Sc2nnc(-c3ccccc3)o2)cs1)[C@@H]1CCCN1C(=O)OCc1ccccc1 [Compound 5010, 2-[4-(5-Phenyl-[1,3,4]oxadiazol-2-ylsulfanyl)-thiazol-2-ylcarbamoyl]-pyrrolidine-1-carboxylic acid benzyl ester] | 6.41
5 | O=C(NC1CC1)c1ccc(-c2csc(NC(=O)[C@@H]3CCCN3C(=O)c3ccncc3)n2)cc1 [Compound 5321, 1-(Pyridine-4-carbonyl)-pyrrolidine-2-carboxylic acid [4-(4-cyclopropylcarbamoyl-phenyl)-thiazol-2-yl]-amide] | 91.3
6 | CS(=O)(=O)Nc1ccc(-c2csc(NC(=O)C3CCCN3C(=O)OCc3ccccc3)n2)cc1 (stereo not drawn) [Compound 5004, 2-[4-(4-Methanesulfonylamino-phenyl)-thiazol-2-ylcarbamoyl]-pyrrolidine-1-carboxylic acid benzyl ester] | 99.9
7 | O=C(Nc1nc(-c2ccc(-n3nncc3-c3ccccc3)cc2)cs1)[C@@H]1CCCN1C(=O)OCc1ccccc1 [Compound 5104, 2-{4-[4-(5-Phenyl-[1,2,3]triazol-1-yl)-phenyl]-thiazol-2-ylcarbamoyl}-pyrrolidine-1-carboxylic acid benzyl ester] | 97.3
8 | O=C(NC1CC1)c1ccc(-c2csc(NC(=O)C3CCCC3C(=O)NCc3ccccc3)n2)cc1 (racemic) [Compound 5382, Cyclopentane-1,2-dicarboxylic acid 1-benzylamide 2-{[4-(4-cyclopropylcarbamoyl-phenyl)-thiazol-2-yl]-amide}] | 100
9 | CC(C)(C)c1csc(NC(=O)[C@@H]2CCCN2C(=O)OCc2ccccc2)n1 [Compound 5360, 2-(4-tert-Butyl-thiazol-2-ylcarbamoyl)-pyrrolidine-1-carboxylic acid benzyl ester] | 54
10 | O=C(Nc1nc(-c2cccc3ccccc23)cs1)[C@@H]1CCCN1C(=O)OCc1ccccc1 [Compound 5055, 2-(4-Naphthalen-1-yl-thiazol-2-ylcarbamoyl)-pyrrolidine-1-carboxylic acid benzyl ester] | 99.3
11 | O=C(NC1CCNC1)c1ccc(-c2csc(NC(=O)[C@@H]3CCCN3C(=O)OCc3ccccc3)n2)cc1 (stereo partly drawn) [Compound 5322, 2-{4-[4-(Pyrrolidin-3-ylcarbamoyl)-phenyl]-thiazol-2-ylcarbamoyl}-pyrrolidine-1-carboxylic acid benzyl ester] | 100
12 | Cc1ccc(S(=O)(=O)Nc2ccc(-c3csc(NC(=O)[C@@H]4CCCN4C(=O)OCc4ccccc4)n3)cc2)cc1 [Compound 5005, 2-{4-[4-(Toluene-4-sulfonylamino)-phenyl]-thiazol-2-ylcarbamoyl}-pyrrolidine-1-carboxylic acid benzyl ester] | 99.8
13 | O=C(NC1CC1)c1ccc(-c2csc(NC(=O)[C@@H]3CCCN3C(=O)OCc3ccccc3)n2)cc1 [Compound 5096, 2-[4-(4-Cyclopropylcarbamoyl-phenyl)-thiazol-2-ylcarbamoyl]-pyrrolidine-1-carboxylic acid benzyl ester] | 100
14 | CC(C)(C)OC(=O)N1CCS[C@H]1C(=O)Nc1nc(-c2ccc(C(=O)NC3CC3)cc2)cs1 [Compound 5334, 2-[4-(4-Cyclopropylcarbamoyl-phenyl)-thiazol-2-ylcarbamoyl]-thiazolidine-3-carboxylic acid tert-butyl ester] | 99.9
15 | O=C(NC1CCCC1)c1ccc(-c2csc(NC(=O)[C@@H]3CCCN3C(=O)OCc3ccccc3)n2)cc1 [Compound 5100, 2-[4-(4-Cyclopentylcarbamoyl-phenyl)-thiazol-2-ylcarbamoyl]-pyrrolidine-1-carboxylic acid benzyl ester] | 99.1
16 | Cc1ccc(S(=O)(=O)Cc2csc(NC(=O)[C@@H]3CCCN3C(=O)OCc3ccccc3)n2)cc1 [Compound 5033, 2-[4-(Toluene-4-sulfonylmethyl)-thiazol-2-ylcarbamoyl]-pyrrolidine-1-carboxylic acid benzyl ester] | 2.51
17 | O=C(NC1CC1)c1ccc(-c2csc(NC(=O)[C@@H]3CCCN3C(=O)Cc3ccc(F)cc3)n2)cc1 [Compound 5323, 1-[2-(4-Fluoro-phenyl)-acetyl]-pyrrolidine-2-carboxylic acid [4-(4-cyclopropylcarbamoyl-phenyl)-thiazol-2-yl]-amide] | 81.5
18 | O=C(Nc1nc(-c2ccc(F)cc2)cs1)[C@@H]1CCCN1C(=O)OCc1ccccc1 [Compound 5098, 2-[4-(4-Fluoro-phenyl)-thiazol-2-ylcarbamoyl]-pyrrolidine-1-carboxylic acid benzyl ester] | 97.2
19 | CCCc1ccc(-c2csc(NC(=O)[C@@H]3CCCN3C(=O)OCc3ccccc3)n2)cc1 [Compound 5099, 2-[4-(4-Propyl-phenyl)-thiazol-2-ylcarbamoyl]-pyrrolidine-1-carboxylic acid benzyl ester] | 35.7
20 | CC(C)(C)NC(=O)c1ccc(-c2csc(NC(=O)[C@@H]3CCCN3C(=O)OCc3ccccc3)n2)cc1 [Compound 5326, 2-[4-(4-tert-Butylcarbamoyl-phenyl)-thiazol-2-ylcarbamoyl]-pyrrolidine-1-carboxylic acid benzyl ester] | 100
21 | CN(C(=O)c1ccc(-c2csc(NC(=O)[C@@H]3CCCN3C(=O)OCc3ccccc3)n2)cc1)c1ccccc1 [Compound 5328, 2-{4-[4-(Methyl-phenyl-carbamoyl)-phenyl]-thiazol-2-ylcarbamoyl}-pyrrolidine-1-carboxylic acid benzyl ester] | 97.3
22 | Nc1ccc(-c2cnc(NC(=O)[C@@H]3CCCN3C(=O)OCc3ccccc3)s2)cc1 [Compound 5111, 2-[5-(4-Amino-phenyl)-thiazol-2-ylcarbamoyl]-pyrrolidine-1-carboxylic acid benzyl ester] | 40
23 | O=C(Cc1csc(NC(=O)[C@@H]2CCCN2C(=O)OCc2ccccc2)n1)NCCc1ccccc1 [Compound 5068, 2-[4-(Phenethylcarbamoyl-methyl)-thiazol-2-ylcarbamoyl]-pyrrolidine-1-carboxylic acid benzyl ester] | 13.5
24 | O=C(Nc1ccncc1)c1ccc(-c2csc(NC(=O)[C@@H]3CCCN3C(=O)OCc3ccccc3)n2)cc1 [Compound 5302, 2-{4-[4-(Pyridin-4-ylcarbamoyl)-phenyl]-thiazol-2-ylcarbamoyl}-pyrrolidine-1-carboxylic acid benzyl ester] | 100

Reference: US7595398B2, “N-(5-membered aromatic ring)-amido anti-viral compounds” (SmithKline Beecham Corporation, priority 2005, dated 2009)
